Target: SARS-CoV-2 PLPro (full-length, intact C111) (Severe acute respiratory syndrome coronavirus 2, UniProt P0DTD1, C1833S)
Assay type: biochemical

Going from Cn1ncc2c(Nc3ccccc3Cl)ncnc21 [Fragment 7] to Cc1cc(Nc2ccccc2C)n2ncnc2n1 [Fragment 9], the “inhibition at 1 mM” value falls from 30% to 5%.

First: CC(C)c1cc(O)n2ncc(-c3ccccc3)c2n1 [Fragment 8]
Second: Cc1ccc(Nc2cc(C)nc3nncn23)c(C)c1 [Fragment 11]
The “inhibition at 1 mM” value of the first is higher: 62% for the first, 2% for the second.

— PMC11318101, “Fragment-Based Screen of SARS-CoV-2 Papain-like Protease (PL^pro)” (ACS Medicinal Chemistry Letters, 2024)
